Experiment [1] concerns CD8+ CTLs, T2 stimulators pulsed with polypeptide. Format: in vivo, HLA-A2 transgenic mice. Particulars: 100 μg CpG, equimolar CpG:peptide, s.c., day 10 (FIG. 8).
The next experiment has as its system IFNγ-secreting CD8+ CTLs. In words: primary IFNγ Elispot of CD8+ CTLs from mice primed with peptide plus CpG. Particulars: 100 μg polypeptide + 100 μg CpG + 10 μg MPL-AF s.c., spleens day 10.

KTWGQYWQV: in experiment [1], the “priming on addition of a KCSRNR amino acid sequence vs native polypeptide” value is recorded as “increased priming”.
As for “LTFNYRNL (Synthetically generated peptide) [H60]”, the “frequencies of IFNγ-secreting CTLs (priming efficiency)” value in the experiment on IFNγ-secreting CD8+ CTLs is “most inefficient”.

The values above are taken from patent US20090233871A1, “Complexed polypeptide and adjuvant for improved vaccines” (priority 2004, published 2009).
